Experimental data published in US11384079B2, “6-5 fused rings as C5a inhibitors” (CHEMOCENTRYX, INC., priority 2017, dated 2022).

Target: T1, C5aR (Homo sapiens, UniProt P21730)
T1 construct: U937 cells are a monocytic cell line which express C5aR; host or cells: U937 cells (cAMP treated) or isolated neutrophils
T1 sequence (P21730 1-350): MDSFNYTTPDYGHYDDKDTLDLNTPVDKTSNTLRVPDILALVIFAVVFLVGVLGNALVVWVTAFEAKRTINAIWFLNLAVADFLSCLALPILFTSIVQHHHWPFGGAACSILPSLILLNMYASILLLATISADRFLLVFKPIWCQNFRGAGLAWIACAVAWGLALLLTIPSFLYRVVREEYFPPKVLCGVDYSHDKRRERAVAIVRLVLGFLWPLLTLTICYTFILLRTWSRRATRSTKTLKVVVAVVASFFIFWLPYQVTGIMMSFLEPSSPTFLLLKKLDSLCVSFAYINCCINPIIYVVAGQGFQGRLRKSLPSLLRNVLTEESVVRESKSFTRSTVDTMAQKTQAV
Experiment: chemotaxis assay (C5aR mediated migration)
Type: cell-based
Details: migration of U937 or neutrophil cells toward C5a (0.03 nM), 1.5 hours at 37° C., read-out: Mig IC50
In short: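 Migration of cAMP-treated U937 cells (0.5 mM overnight), or of human or murine neutrophils, toward C5a was measured through 5 μm polycarbonate filters in HBSS with 1% FBS. SDF-1α served as a specificity control. After 1.5 h at 37 °C, lower-chamber cells were counted directly or by CyQuant.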

Row | SMILES | IC50 [nM]
1 | CCc1cccc(CC)c1-n1nc2c(c1-c1ccc(Cl)c3[nH]ccc13)CN(c1ncc(C(F)(F)F)cc1F)CC2 [Example 1.185] | < 5
2 | Cc1cccc(OCC(C)C)c1-n1nc2c(c1-c1ccc3[nH]ccc3c1)CN(C(=O)NC(C)(C)C)CC2 [Example 1.186] | 50 to 500
3 | CCc1cccc(CC)c1-n1nc2c(c1-c1ccc(F)c3[nH]ccc13)CN(c1ncc(Cl)cc1Cl)CC2 [Example 1.187] | < 5
4 | CCc1cccc(CC)c1-n1nc2c(c1-c1ccc(F)c3[nH]ccc13)CN(c1ncc(C(F)(F)F)cc1F)CC2 [Example 1.188] | < 5
5 | Cc1cccc(C)c1-n1nc2c(c1-c1cc(C)c3[nH]ccc3c1)CN(c1ncc(Cl)cc1Cl)CC2 [Example 1.189] | 50 to 500
6 | Cc1cccc(C)c1-n1nc2c(c1-c1ccc3[nH]cc(C#N)c3c1)CN(c1ncc(Cl)cc1Cl)CC2 [Example 1.190] | > 500
7 | Cc1cccc(C)c1-n1nc2c(c1-c1cc(Cl)c3[nH]ccc3c1)CN(c1ncc(Cl)cc1Cl)CC2 [Example 1.191] | 50 to 500
8 | Cc1cccc(C)c1-n1nc2c(c1-c1ccc3[nH]ncc3c1)CN(c1ncc(Cl)cc1Cl)CC2 [Example 1.192] | > 500
9 | Cc1cccc(C)c1-n1nc2c(c1-c1cc3cc[nH]c3cc1F)CN(c1ncc(Cl)cc1Cl)CC2 [Example 1.193] | 50 to 500
10 | Cc1cccc(C)c1-n1nc2c(c1-c1cc(F)c3[nH]ccc3c1)CN(c1ncc(Cl)cc1Cl)CC2 [Example 1.194] | 50 to 500
11 | Cc1cccc(C)c1-n1nc2c(c1-c1ccc3[nH]ccc3c1F)CN(c1ncc(Cl)cc1Cl)CC2 [Example 1.195] | 5 to 50
12 | Cc1cccc(C)c1-n1nc2c(c1-c1cccc3[nH]ccc13)CN(c1ncc(Cl)cc1Cl)CC2 [Example 1.196] | 5 to 50
13 | Cc1cccc(C)c1-n1nc2c(c1-c1ccc3[nH]ccc3c1)CN(c1ncc(Cl)cc1Cl)CC2 [Example 1.197] | 5 to 50
14 | Cc1cccc(OCC(C)C)c1-n1nc2c(c1-c1cccc3[nH]ccc13)CN(c1ncc(C(C)C)cc1F)CC2 [Example 1.198] | 5 to 50
15 | Cc1cccc(OCC(C)C)c1-n1nc2c(c1-c1ccc3[nH]ccc3c1)CN(C(C)(C)c1ccccc1)CC2 [Example 1.199] | < 5
16 | Cc1cccc(OCC(C)C)c1-n1nc2c(c1-c1ccc3[nH]ccc3c1)CN(c1ncc(Cl)cc1Cl)CC2 [Example 1.200] | < 5
17 | Cc1cccc(OCC(C)C)c1-n1nc2c(c1-c1cccc3[nH]ccc13)CN(c1ncc(Cl)cc1Cl)CC2 [Example 1.201] | 5 to 50
18 | CCc1cccc(CC)c1-n1nc2c(c1-c1ccc3[nH]ccc3c1)CN(C(C)c1ccccc1C(F)(F)F)CC2 (centres unmarked) [Example 1.202] | 5 to 50
19 | Cc1cccc(OCC(C)C)c1-n1nc2c(c1-c1ccc3[nH]ccc3c1)CN(Cc1cc(Cl)ccc1C(F)(F)F)CC2 [Example 1.203] | 5 to 50

Row | SMILES | IC50 [nM]
20 | Cc1cccc(OCC(C)C)c1-n1nc2c(c1-c1ccc3[nH]cc(C)c3c1)CN(c1ncc(C(F)(F)F)cc1F)CC2 [Example 1.204] | 50 to 500
21 | Cc1cccc(OCC(C)C)c1-n1nc2c(c1-c1cccc3[nH]ccc13)CN(Cc1cc(Cl)ccc1C(F)(F)F)CC2 [Example 1.205] | 5 to 50
22 | Cc1cccc(OCC(C)C)c1-n1nc2c(c1-c1ccc3[nH]ccc3c1)CN(C(C)CC(F)(F)F)CC2 (centres unmarked) [Example 1.206] | 5 to 50
23 | CCC(CC)N1CCc2nn(-c3c(C)cccc3OCC(C)C)c(-c3ccc4[nH]ccc4c3)c2C1 [Example 1.207] | 5 to 50
24 | CCc1cccc(CC)c1-n1nc2c(c1-c1ccc3[nH]ccc3c1)CN(C1CCOCC1)CC2 [Example 1.208] | 50 to 500
25 | CCc1cccc(CC)c1-n1nc2c(c1-c1ccc3[nH]ccc3c1)CN(C1CCCC1)CC2 [Example 1.209] | 5 to 50
26 | Cc1cccc(OCC(C)C)c1-n1nc2c(c1-c1ccc3[nH]ccc3c1)CN(c1nc(C(C)C)ns1)CC2 [Example 1.210] | 5 to 50
27 | CCc1cccc(CC)c1-n1nc2c(c1-c1ccc3[nH]ccc3c1)CN(C(C)C(C)C)CC2 (centres unmarked) [Example 1.211] | 5 to 50
28 | CCc1cccc(CC)c1-n1nc2c(c1-c1ccc3[nH]ccc3c1)CN(C(CC)CC)CC2 [Example 1.212] | < 5
29 | C=C(C)c1nsc(N2CCc3nn(-c4c(C)cccc4OCC(C)C)c(-c4ccc5[nH]ccc5c4)c3C2)n1 [Example 1.213] | 5 to 50
30 | Cc1cccc(OCC(C)C)c1-n1nc2c(c1-c1ccc3[nH]ccc3c1)CN(c1nc(Cl)ns1)CC2 [Example 1.214] | 5 to 50
31 | Cc1cccc(OCC(C)C)c1-n1nc2c(c1-c1ccc3[nH]nc(C)c3c1)CN(c1ncc(C(F)(F)F)cc1F)CC2 [Example 1.215] | > 500
32 | Cc1cccc(OCC(C)C)c1-n1nc2c(c1-c1ccc3[nH]ccc3c1)CN(c1ncc(C(F)(F)F)cc1Cl)CC2 [Example 1.216] | 5 to 50
33 | Cc1cccc(OCC(C)C)c1-n1nc2c(c1-c1ccnc3[nH]ccc13)CN(c1ncc(C(F)(F)F)cc1F)CC2 [Example 1.217] | 50 to 500
34 | Cc1cccc(OCC(C)C)c1-n1nc2c(c1-c1cc(F)c3[nH]ccc3c1)CN(c1ncc(C(F)(F)F)cc1F)CC2 [Example 1.218] | < 5
35 | FC(F)(F)c1ccccc1CN1CCc2nn(-c3c(Cl)cccc3Cl)c(-c3ccc4[nH]ccc4c3)c2C1 [Example 1.219] | 5 to 50
36 | CCc1cccc(CC)c1-n1nc2c(c1-c1ccc3[nH]cc(Cl)c3c1)CN(Cc1cc(F)ccc1Cl)CC2 [Example 1.220] | 5 to 50
37 | Cc1cccc(C)c1-n1nc2c(c1-c1ccc3[nH]ccc3c1)CN(Cc1ccccc1C(F)(F)F)CC2 [Example 1.221] | 5 to 50
38 | Cc1cccc(OCC(C)C)c1-n1nc2c(c1-c1cccc3[nH]ccc13)CN(Cc1ccccc1C(F)(F)F)CC2 [Example 1.222] | 5 to 50

Row | SMILES | IC50 [nM]
39 | CCc1cccc(CC)c1-n1nc2c(c1-c1ccc3[nH]ccc3c1)CN(Cc1c(Cl)cccc1C(F)(F)F)CC2 [Example 1.223] | < 5
40 | Cc1nc2cc(-c3c4c(nn3-c3c(C)cccc3OCC(C)C)CCN(c3ncc(C(F)(F)F)cc3F)C4)ccc2[nH]1 [Example 1.224] | > 500
41 | Cc1cccc(OCC(C)C)c1-n1nc2c(c1-c1ccc3[nH]nc(N)c3c1)CN(c1ncc(C(F)(F)F)cc1F)CC2 [Example 1.225] | > 500
42 | CCc1cccc(CC)c1-n1nc2c(c1-c1ccc3[nH]ccc3c1)CN(Cc1cc(Cl)ccc1C(F)(F)F)CC2 [Example 1.226] | < 5
43 | CCc1cccc(CC)c1-n1nc2c(c1-c1ccc3[nH]ccc3c1)CN(Cc1cc(Cl)ccc1Cl)CC2 [Example 1.227] | < 5
44 | Cc1cccc(OCC(C)C)c1-n1nc2c(c1-c1ccc3cc[nH]c3c1)CN(c1ncc(C(F)(F)F)cc1F)CC2 [Example 1.228] | 50 to 500
45 | Cc1cccc(OCC(C)C)c1-n1nc2c(c1-c1cccc3[nH]ccc13)CN(c1ncc(C(F)(F)F)cc1F)CC2 [Example 1.229] | 5 to 50
46 | CCc1cccc(CC)c1-n1nc2c(c1-c1ccc3[nH]ccc3c1)CN(Cc1cc(F)ccc1Cl)CC2 [Example 1.230] | < 5
47 | CCc1cccc(CC)c1-n1nc2c(c1-c1ccc3[nH]ccc3c1)CN(Cc1ccccc1C(F)(F)F)CC2 [Example 1.231] | < 5
48 | Cc1cccc(OCC(C)C)c1-n1nc2c(c1-c1ccc3[nH]ccc3c1)CN(c1ncc(C(F)(F)F)cc1F)CC2 [Example 1.232] | < 5
49 | Cc1cccc(OCC(C)C)c1-n1nc2c(c1-c1ccc3[nH]ccc3c1)CN(C(C)c1ccccc1C(F)(F)F)CC2 (centres unmarked) [Example 1.233] | < 5
50 | Cc1cccc(OCC(C)C)c1-n1nc2c(c1-c1ccc3[nH]ccc3c1)CN(Cc1ccc(C(F)(F)F)cc1C(F)(F)F)CC2 [Example 1.234] | 5 to 50
51 | Cc1cccc(OCC(C)C)c1-n1nc2c(c1-c1ccc3[nH]ccc3c1)CN(Cc1ccccc1C(F)(F)F)CC2 [Example 1.235] | < 5
52 | Cc1cccc(OCC(C)C)c1-n1nc2c(c1-c1ccc3cc[nH]c3c1)CN(CC(C)(C)C)CC2 [Example 1.236] | 50 to 500
53 | Cc1cccc(OCC(C)C)c1-n1nc2c(c1-c1ccc3[nH]ccc3c1)CN(CC(C)(C)C)CC2 [Example 1.237] | < 5
54 | Cc1cccc(OCC(C)C)c1-n1nc2c(c1-c1ccc3[nH]ccc3c1)CN(C(=O)OCc1ccccc1)CC2 [Example 1.238] | 5 to 50
55 | Cc1cccc(C)c1-n1nc2c(c1-c1ccc3[nH]ccc3c1)CN(CC(C)(C)C)CC2 [Example 1.239] | 5 to 50
56 | Cc1cccc(C)c1-n1nc2c(c1-c1ccc3[nH]ccc3c1)CN(C(=O)OC(C)(C)C)CC2 [Example 1.240] | 5 to 50
